# Tests used:
# [1] = molecular target: T1, Serine/threonine-protein phosphatase 5 (Homo sapiens) (UniProt P53041); test: Activation of His-tagged human PP5 extracted from Escherichia coli BL21 using pNPP as substrate assessed as fold increase in phosphatase activity at 50 uM incubated for 30 mins by spectrophotometric analysis
# T1 sequence (whole entry): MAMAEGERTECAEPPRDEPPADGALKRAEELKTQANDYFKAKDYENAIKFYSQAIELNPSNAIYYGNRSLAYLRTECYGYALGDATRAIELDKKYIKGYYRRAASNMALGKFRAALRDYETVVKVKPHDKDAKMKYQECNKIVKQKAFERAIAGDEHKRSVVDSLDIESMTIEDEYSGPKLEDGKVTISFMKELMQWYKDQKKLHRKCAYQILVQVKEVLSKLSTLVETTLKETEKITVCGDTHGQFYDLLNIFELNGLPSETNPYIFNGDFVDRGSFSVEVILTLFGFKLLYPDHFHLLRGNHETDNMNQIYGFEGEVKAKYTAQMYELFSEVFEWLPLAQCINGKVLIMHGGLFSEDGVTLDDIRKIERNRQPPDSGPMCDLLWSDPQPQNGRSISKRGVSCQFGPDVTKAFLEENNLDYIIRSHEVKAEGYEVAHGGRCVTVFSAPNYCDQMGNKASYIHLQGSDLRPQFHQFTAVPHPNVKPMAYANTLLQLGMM
# [2] = molecular target: T2, Serine/threonine-protein phosphatase 5 (Homo sapiens, UniProt P53041); test: Inhibition of human PP5 phosphatase domain extracted from Escherichia coli BL21 using pNPP as substrate incubated for 30 mins by spectrophotometric analysis
# T2 sequence (P53041 whole entry): T1 sequence (whole entry)
# [3] = molecular target: T2, Serine/threonine-protein phosphatase 5; test: Inhibition of DDO-3733 preincubated human PP5 phosphatase domain extracted from Escherichia coli BL21 using pNPP as substrate incubated for 30 mins by spectrophotometric analysis
# [4] = molecular target: T1, Serine/threonine-protein phosphatase 5 (Homo sapiens); test: Activation of His-tagged human PP5 extracted from Escherichia coli BL21 using pNPP as substrate assessed as fold increase in phosphatase activity at 200 uM incubated for 30 mins by spectrophotometric analysis; settings: filed as activator
# [5] = molecular target: T1, Serine/threonine-protein phosphatase 5 (Homo sapiens); test: Activation of His-tagged human PP5 extracted from Escherichia coli BL21 using pNPP as substrate assessed as increase in phosphatase activity incubated for 30 mins by spectrophotometric analysis; settings: filed as activator
# [6] = molecular target: T1, Serine/threonine-protein phosphatase 5 (Homo sapiens); test: Activation of His-tagged human PP5 extracted from Escherichia coli BL21 using pNPP as substrate assessed as fold change in maximum activation upto 300 uM incubated for 30 mins by spectrophotometric analysis; settings: filed as activator
# [7] = system: HCT-116; test: Heat shock toxicity in human HCT-116 cells assessed as increase in HSP27 protein expression at 3 to 100 nM incubated for 24 hrs by Western blot analysis; type: cell-based; settings: hct-116, 24 h, 0.1 µM, dose 3-100 nM
# [8] = system: HCT-116; test: Heat shock toxicity in human HCT-116 cells assessed as increase in HSP40 mRNA expression at 10 to 100 nM incubated for 24 hrs by qRT-PCR analysis; type: cell-based; settings: hct-116, 24 h, 0.1 µM, dose 10-100 nM
# [9] = system: SW-620; test: Antiproliferative activity against human SW620 cells assessed as inhibition of cell proliferation incubated for 72 hrs by CCK8 assay; type: functional, cell-based; settings: SW-620, 72 h
# [10] = system: HCT-116; test: Heat shock toxicity in human HCT-116 cells assessed as increase in HSP70 mRNA expression at 10 to 100 nM incubated for 24 hrs by qRT-PCR analysis; type: cell-based; settings: hct-116, 24 h, 0.1 µM, dose 10-100 nM
# [11] = system: HCT-116; test: Heat shock toxicity in human HCT-116 cells assessed as increase in HSP40 protein expression at 3 to 100 nM incubated for 24 hrs by Western blot analysis; type: cell-based; settings: hct-116, 24 h, 0.1 µM, dose 3-100 nM
# [12] = system: HCT-116; test: Heat shock toxicity in human HCT-116 cells assessed as increase in HSP27 mRNA expression at 10 to 100 nM incubated for 24 hrs by qRT-PCR analysis; type: cell-based; settings: hct-116, 24 h, 0.1 µM, dose 10-100 nM
# [13] = system: HCT-116; test: Antiproliferative activity against human HCT-116 cells assessed as inhibition of cell proliferation incubated for 72 hrs by CCK8 assay; type: functional, cell-based; settings: HCT-116, 72 h
# [14] = system: HCT-116; test: Heat shock toxicity in human HCT-116 cells assessed as increase in HSP70 protein expression at 3 to 100 nM incubated for 24 hrs by Western blot analysis; type: cell-based; settings: hct-116, 24 h, 0.1 µM, dose 3-100 nM
# [15] = Toxicity in BALB/c nude mouse xenografted with human HCT-116 cells assessed as body weight loss at 20 mg/kg, ip administered every other day for 14 days; type: organism-based; settings: in vivo, 336 h, time 14 day
fold change (FC) ([1]; filed as activator),fold change (FC) [1],SMILES,other results
2.1,–,N=c1oc2c(F)cc(F)cc2cc1C(N)=S,–
–,< 1.5,N=c1oc2ccc(F)cc2cc1C(N)=S,–
–,< 1.5,CO/N=c1/oc2c(F)cc(F)cc2cc1C(N)=S,–
2.1,–,N=c1oc2c(F)cc(F)cc2cc1C(=S)NC=O,–
1.8,–,N=c1oc2c(F)ccc(F)c2cc1C(N)=S,–
2.1,–,COc1cc(Br)cc2cc(C(N)=S)c(=N)oc12,–
–,< 1.5,N=c1oc2c(F)cc(F)cc2cc1C(N)=O,–
–,< 1.5,C/N=c1/oc2c(F)cc(F)cc2cc1C(N)=S,–
1.7,–,N=c1oc2cc(F)ccc2cc1C(N)=S,–
–,< 1.5,N=c1oc2cc(F)cc(F)c2cc1C(N)=O,–
2.6,–,N=c1oc2c(Br)cc(Br)cc2cc1C(N)=S,–
–,< 1.5,N=c1oc2c(F)cccc2cc1C(N)=S,–
1.7,–,N=c1oc2cc(F)c(F)cc2cc1C(N)=S,–
–,< 1.5,N=c1oc2c(Cl)cc(Cl)cc2cc1C(N)=S,–

# Second part, the compound before the results:
SMILES,fold change (FC) ([1]; filed as activator),fold change (FC) [1],other results
N=c1oc2ccc(O)cc2cc1C(N)=S,1.9,–,–
CN1CCN(C(=O)C2C(C(=O)O)[C@H]3CC[C@@H]2O3)CC1 (stereo partly drawn) [LB-100],–,–,IC50 [2]: 22.1 µM; IC50 [3]: 21.1 µM
COc1ccc2oc(=N)c(C(N)=S)cc2c1,1.9,–,fold change (FC) [4]: 3.4; Activity [5]: Dose-Dependent Effect
Cc1ccc2oc(=N)c(C(N)=S)cc2c1,1.6,–,–
N=c1oc2cccc(F)c2cc1C(N)=S,1.6,–,–
N=c1oc2ccccc2cc1C(N)=S,1.8,–,–
COc1cccc2cc(C(N)=S)c(=N)oc12,–,< 1.5,–
N=c1oc2cc(Br)ccc2cc1C(N)=S,2.1,–,fold change (FC) [6]: 4; Activity [5]: Dose-Dependent Effect
N=c1oc2cccc(Br)c2cc1C(N)=S,–,< 1.5,–
CC(C)c1cc(C(=O)N2Cc3ccc(CN4CCN(C)CC4)cc3C2)c(O)cc1O [ONALESPIB],–,–,Activity [7]: Toxic; Activity [8]: Toxic; IC50 [9]: 0.122 µM; Activity [10]: Toxic; Activity [11]: Toxic; Activity [12]: Toxic; IC50 [13]: 0.0785 µM; Activity [14]: Toxic; Activity [15]: Non-Toxic
N=c1oc2cc(O)ccc2cc1C(N)=S,2.4,–,–
N=c1oc2ccc3ccccc3c2cc1C(N)=S,1.6,–,–
COc1cccc2oc(=N)c(C(N)=S)cc12,–,< 1.5,–
N=c1oc2cc([N+](=O)[O-])ccc2cc1C(N)=S,–,< 1.5,–
COc1ccc2cc(C(N)=S)c(=N)oc2c1,1.6,–,–
NC(=S)C1=Cc2cc(F)cc(F)c2OC1N (stereo not drawn),1.8,–,–
